Assay results from patent publication US4550186A, “Binuclear copper (II) carboxylates formed from amine-carboxyboranes” (Duke University, priority 1983, dated 1985).

Legend:
Acetyl CoA synthetase = assay: In vitro liver enzyme study: acetyl CoA synthetase; type: biochemical, mouse; conditions: in vitro CF1 liver, 30 min
Description: (§1) In vitro enzymatic studies were determined using 10% homogenates of CF1 male mouse liver with 50-200 μM of test drugs. In vivo enzymatic studies were determined using 10% homogenates of liver from CF1 male mice obtained after administering the agents for 16 days at a dose ranging from 2.5-20 mg/kg/day intraperitoneally. The liver homogenates for both in vitro and in vivo studies were prepared in 0.25M sucrose and 0.001M (ethylenedinitrilo)tetraacetic acid. Acetyl coenzyme A synthetase and adenosine triphosphate dependent citrate lyase activities were determined spectrophotometrically at 540 nm as the hydroxylamate of acetyl coenzyme A formed after 30 min at 37° C. Mitochondrial citrate exchange was determined by the procedure of Robinson et al [Eur. J. Biochem., 216, 63 (1970)] using ^14 C-sodium bicarbonate (41 mCi/mmol) incorporated into mitochondrial ^14 C-citrate after isolating rat mitochondria (9000 g×10 min) from the homogenates. The exchanges of the ^14 C-citrate were determined after incubating the mitochondrial fraction which was loaded with labeled citrate and test drugs for 10 min. Then the radioactivity was measured in the mitochondrial and supernantant fractions in scintillation fluid and expressed as a percentage. Cholesterol side chain oxidation was determined by the method of Kritchevsky and Tepper [Artherosclerosis, 18, 93 (1973)] using (26-^14 C) cholesterol (50 mCi/mmol) and mitochondria isolated from rat liver homogenates. […] Fatty acid synthetase activity was determined by the method of Brady et al [J. Biol. Chem., 235, 3093 (1960)] using [2-^14 C] malonyl-coenzyme A (37.5 mCi/mmol) which was incorporated into newly synthesized fatty acids that were extracted with ether and counted. Acyl transferase activity was determined with glycerol-3phosphate [L-2-^3 H(N)] […] HCl and counted. Phosphatidate phosphohydrolase activity was measured as the inorganic phosphate released after 30 min from phosphatidic acid by the method of Mavis et al [J. Lipid Res., 19, 467 (1978)]. […]

HMG CoA Reductase = target: T1, HMG CoA Reductase (Mus musculus, UniProt Q01237); assay: In vivo liver enzyme study: HMG CoA reductase; conditions: CF1 liver after 16 days i.p.
T1 construct: 10% homogenates of CF1 male mouse liver; from tissue; host or cells: CF1 male mouse liver, post-mitochondrial supernatant
T1 sequence (Q01237 1-887): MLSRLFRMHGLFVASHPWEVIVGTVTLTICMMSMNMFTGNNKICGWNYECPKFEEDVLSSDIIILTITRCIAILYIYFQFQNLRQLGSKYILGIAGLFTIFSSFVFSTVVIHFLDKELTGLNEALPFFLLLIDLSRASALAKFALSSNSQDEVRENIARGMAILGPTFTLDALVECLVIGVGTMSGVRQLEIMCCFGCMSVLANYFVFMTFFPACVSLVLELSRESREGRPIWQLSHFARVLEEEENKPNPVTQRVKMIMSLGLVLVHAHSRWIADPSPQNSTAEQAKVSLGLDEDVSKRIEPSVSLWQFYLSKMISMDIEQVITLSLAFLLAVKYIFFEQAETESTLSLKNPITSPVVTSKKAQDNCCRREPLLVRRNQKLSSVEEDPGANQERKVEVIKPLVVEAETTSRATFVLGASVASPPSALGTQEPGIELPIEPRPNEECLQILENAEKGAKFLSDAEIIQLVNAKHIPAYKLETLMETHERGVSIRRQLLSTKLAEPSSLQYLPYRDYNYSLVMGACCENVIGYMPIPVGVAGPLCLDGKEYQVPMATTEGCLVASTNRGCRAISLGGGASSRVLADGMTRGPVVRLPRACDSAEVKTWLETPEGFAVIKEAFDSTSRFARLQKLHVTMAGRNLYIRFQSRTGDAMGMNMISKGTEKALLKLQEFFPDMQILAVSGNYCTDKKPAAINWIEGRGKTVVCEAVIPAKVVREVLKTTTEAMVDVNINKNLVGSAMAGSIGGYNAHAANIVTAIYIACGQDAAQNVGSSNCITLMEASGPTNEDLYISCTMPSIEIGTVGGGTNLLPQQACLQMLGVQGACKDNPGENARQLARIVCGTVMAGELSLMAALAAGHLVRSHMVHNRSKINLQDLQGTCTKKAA
Description: as §1

For “{Cu[(CH3)3 N.BH2 CO2 ]2.(CH3)3 N.BH2 COOH} [Compound I]”, the “Acetyl CoA synthetase” value (Acetyl CoA synthetase; 50 μM) was 104 ± 5 Percent Control, the “Acetyl CoA synthetase” value (Acetyl CoA synthetase; 100 μM) was 87 ± 4 Percent Control and the “Acetyl CoA synthetase” value (Acetyl CoA synthetase; 200 μM) was 84 ± 5 Percent Control. The “HMG CoA Reductase” value (HMG CoA Reductase; 2.5 mg/kg) was 112 ± 8% of control, the “HMG CoA Reductase” value (HMG CoA Reductase; 5.0 mg/kg) was 108 ± 9% of control and the “HMG CoA Reductase” value (HMG CoA Reductase; 10 mg/kg) was 102 ± 8% of control.
